{
  "source": "patent US20200338028A1",
  "about": "“BENZENESULFONAMIDE DERIVATIVES AND METHOD FOR MODULATING LIPID RAFT” (Gongwin Biopharm Co., Ltd., priority 2017, published 2020)",
  "key": {"DU-145 cells [1]": {"tested_on": "DU-145 cells", "experiment": "colony formation (clonogenic) assay", "format": "cell-based, human", "conditions": "DU-145, 10 days, FIG. 1B", "experimental": "(§1) To assay the anchorage-dependent clonogenic effect, each individual PC-3 and DU-145 cells (150 cells/well) were seeded in a 6-well plate. After a 10-day treatment with p-TSA, the cell colonies were rinsed with phosphate-buffered saline (PBS), stained with 0.4% (w/v) crystal violet dissolved in 20% methanol, and lysed by 50 mM sodium citrate dissolved in 50% ethanol. The absorbance was read at a wavelength of 595 nm."}, "DU-145 cells [2]": {"tested_on": "DU-145 cells", "experiment": "SRB assay, anti-proliferative effect", "format": "cell-based", "conditions": "Homo sapiens; DU-145, SRB assay, FIG. 1A; read-out: IC50, inhibition of cell growth", "experimental": "Two castration-resistant prostate cancer (CRPC) cell lines of PC-3 and DU-145 were cultured in RPMI 1640 medium with 5% FBS (v/v), penicillin (100 units/ml) and streptomycin (100 μg/ml). Cultures were maintained in a 37° C. incubator with 5% CO2, and adherent cultures were passaged using 0.05% trypsin-EDTA when they reached about 80% confluence. Prostate cells were from human tissue samples which were obtained following informed consent of the donors and after full review by the Ethics Review Committee at National Taiwan University Hospital. The prostate specimens were from males by transurethral resection of the prostate. All patients with prostatism histories were diagnosed to have benign prostate hyperplasia by rectal digital examination, transrectal sonography of prostate and urodynamic studies. […] SRB assay is an accurate and reproducible assay based upon quantitative SRB staining of cellular proteins, and the process for SRB assay was performed as follows. […] The absorbance of SRB was measured at a wavelength of 515 nm at the time of p-TSA addition (hereinafter referred to as time zero, TZ), and after additional incubation of DMSO (hereinafter referred to as control growth, CTL) or p-TSA (hereinafter referred to as Tx). The percentage of cell growth inhibition was calculated by the formula of [1−(Tx−TZ)/(CTL−TZ)]×100%. […]"}, "PC-3 cells [3]": {"tested_on": "PC-3 cells", "experiment": "colony formation (clonogenic) assay", "format": "cell-based, human", "conditions": "for IC50: Homo sapiens, PC-3, 240 h, 10 days, FIG. 4F, read-out: IC50, growth inhibition, colony formation assay", "experimental": "as §1\nTo further substantiate the role of Akt, the Myr-Akt overexpressed PC-3 cells were prepared with the method shown as follows. The plasmid encoding Myr-Akt, an N-terminally myristoylation signal-attached Akt, was a gift from Professor Mien-Chie Hung (The University of Texas, M.D. Anderson Cancer Center). For transfection, PC-3 cells were seeded into 60-mm tissue culture dishes with 30% confluence and grown for 24 h to 50-60% confluence. Each dish was washed with serum-free Opti-MEM (Life Technologies), and 2 ml of the serum-free Opti-MEM was then added. Aliquots containing Myr-Akt expression vector or a control plasmid in serum-free Opti-MEM were transfected into cells using Lipofectamine 2000 (Invitrogen) following the manufacturer's instructions. After incubation for 6 h at 37° C., cells were washed with serum-free Opti-MEM and incubated in 10% FBS-containing RPMI-1640 medium for 48 h. The cells were treated with or without p-TSA and then the related analyses were performed. […] Furthermore, the functional rescue of Myr-Akt was determined. […] However, overexpression of Myr-Akt had minimal effect on p-TSA-induced cyclin D1 down-regulation."}, "DU-145 cells [4]": {"tested_on": "DU-145 cells", "experiment": "propidium iodide staining, cell cycle distribution by flow cytometry", "format": "cell-based, human", "conditions": "DU-145, 24 h, FIG. 2A", "experimental": "(§2) Flow cytometric analysis was performed as follows. Cells were harvested by trypsinization, fixed with 70% (v/v) alcohol at 4° C. for 30 min and washed with PBS. After centrifugation, the cells were incubated in phosphate-citric acid buffer (0.2 mol/l NaHPO4, 0.1 mol/l citric acid, pH 7.8) for 30 min at room temperature. The cells were then centrifuged and resuspended with 0.5 ml propidium iodide (PI) solution containing Triton X-100 (0.1% v/v), RNase (100 μg/ml) and PI (80 μg/ml). DNA content was analyzed with the FACScan and CellQuest software (Becton Dickinson, Mountain View, Calif., United States)."}, "PC-3 cells [5]": {"tested_on": "PC-3 cells", "experiment": "propidium iodide staining, cell cycle distribution by flow cytometry", "format": "cell-based, human", "conditions": "PC-3, 24 h, FIG. 2A", "experimental": "as §2"}, "DU-145 cells [6]": {"tested_on": "DU-145 cells", "experiment": "CFSE staining, flow cytometric proliferation index", "format": "cell-based, human", "conditions": "DU-145, 48 h", "experimental": "(§3) The anti-proliferative effect was further examined by CFSE staining. CFSE is a fluorescent cell staining dye for cell-tracking, and it was conjugated to intracellular proteins and was evenly inherited by divided cells after cell proliferation. Consequently, the fluorescence-staining was distributed to later generations of cells with the passage of time. The process for CFSE staining was performed as follows. CFSE was dissolved in DMSO to constitute a storage solution of 10 mM and was kept at −20° C. until use. The PC-3 and DU-145 cells were adjusted to a density of 10^6 cells/ml and were treated with CFSE at a final concentration of 10 μM in tubes. After incubation at 37° C. for 10 min, labeling was blocked by the addition of RPMI medium with 10% FBS. The tubes were placed on ice for 5 min and then washed. After centrifugation of the tubes, the cells were seeded in RPMI medium with 10% FCS in the absence or presence of p-TSA for 48 h at 37° C. under 5% CO2/95% air condition. The fluorescence intensity was determined by flow cytometric analysis. The cell proliferation was assessed by monitoring the decrease in label intensity in daughter cells. The proliferation index and the cell populations of parent or different generations were calculated by using Modfit LT Version 3.2 and WinList Version 5.0 software."}, "PC-3 cells [7]": {"tested_on": "PC-3 cells", "experiment": "CFSE staining, flow cytometric proliferation index", "format": "cell-based, human", "conditions": "PC-3, 48 h", "experimental": "as §3"}},
  "note": "Like-named read-outs stand apart in the source and are kept apart here.",
  "data": [
    {"smiles": "Cc1ccc(S(N)(=O)=O)cc1", "note": "[p-TSA, para-toluenesulfonamide]", "values": [
      {"measurement": "anti-proliferative effect, clonogenic assay", "setting": "DU-145 cells [1]", "result": "long-term anti-proliferative effect"},
      {"measurement": "IC50", "setting": "DU-145 cells [2]", "result": "~3000", "unit": "µM"},
      {"measurement": "IC50", "setting": "PC-3 cells [3]; PC-3 overexpressing constitutively active Myr-Akt", "result": "680 ± 20", "unit": "µM"},
      {"measurement": "IC50", "setting": "PC-3 cells [3]; PC-3 without Myr-Akt overexpression", "result": "580 ± 20", "unit": "µM"},
      {"measurement": "anti-proliferative effect, clonogenic assay", "setting": "PC-3 cells [3]; PC-3, 10 days, FIG. 1B", "result": "long-term anti-proliferative effect"},
      {"measurement": "cell apoptosis", "setting": "DU-145 cells [4]", "result": "accelerated cell apoptosis"},
      {"measurement": "distribution of cell populations in cell cycle phases", "setting": "DU-145 cells [4]", "result": "accumulation of both PC-3 cells and DU-145 cells in G1 phase"},
      {"measurement": "cell apoptosis", "setting": "PC-3 cells [5]", "result": "accelerated cell apoptosis"},
      {"measurement": "distribution of cell populations in cell cycle phases", "setting": "PC-3 cells [5]", "result": "accumulation of both PC-3 cells and DU-145 cells in G1 phase"},
      {"measurement": "proliferation index based on CFSE staining", "setting": "DU-145 cells [6]", "result": "concentration-dependent inhibition"},
      {"measurement": "proliferation index based on CFSE staining", "setting": "PC-3 cells [7]", "result": "concentration-dependent inhibition"}
    ]}
  ]
}
